# Experimental data from patent publication US7371413B2, “Antioxidant and anti-inflammatory activity of compounds and preparations from African nutmeg seeds” (Rutgers, The State University, priority 2003, dated 2008).
# Experiments:
# [1] = system: TPA-induced mouse ear edema; details: compounds isolated from Roldana barba-johannis; compared with α-tocopherol; cited from earlier work
# [2] = DPPH free radical scavenging assay; format: biochemical; details: DPPH 1.0×10^−4 M in ethanol, half an hour, 517 nm
# Method: Kombo butter, kombo butter acid extract, and purified sargaquinoic acid (KB-1), sargachromenol (KB-2), and sargahydroquinoic acid (KB-3) were tested for antioxidant activity by both the 2,2′-diphenylpicrylydrazyl (DPPH) and the 2,2′-azinobis-(3-ethylbenzothiazoline-6-sulfonic acid) (ABTS) free radical scavenging assays. A solution of DPPH in ethanol was prepared at a final concentration of 1.0×10^−4 M. Each of the potential actives under investigation was added to the DPPH solution at a number of different concentrations. The solutions were mixed, shaken vigorously and kept in the dark for half an hour. The absorbance of the samples was then measured at 517 nm with an HP Model 8453 spectrophotometer using a blank of ethanol without DPPH. All tests were run in triplicate and averaged. Differences among individual measurements were always less than 5% [26].
# [3] = system: COX-2 mRNA expression in LPS-induced RAW 264.7 mouse macrophage cells; test: Inhibition of LPS-induced COX-2 mRNA expression (RT-PCR); format: cell-based; details: for inhibition of COX-2 mRNA expression: 12 hrs; for inhibition of COX-2 mRNA expression (in words): within the concentration ranges assayed
# Method: (§1) Total RNA was isolated using Tri-reagent (Sigma, MO, USA) and 5 μg of this RNA was reverse transcribed to make cDNA using random hexamers and Superscript™ reverse transcriptase (Invitrogen, CA, USA) according to the manufacturer's instructions. The linear range of amplification of iNOS and COX-2 cDNA was determined using gene specific primers from Ambion, Inc. (TX, USA) according to the manufacturer's instructions. Briefly, the optimum amount of 18S primer and competitor for iNOS and COX-2 genes were determined. […] Finally, PCR products from each sample (10 μl) were resolved by electrophoresis in a 2% agarose gel (Fisher Biotech, NJ, USA) and stained with ethidium bromide. An image of the gel was captured after the appropriate exposure time and densitometric analysis was performed using image analysis software (Scion, NIH). For relative quantification, 18S ribosomal RNA was also amplified in same reaction as an internal control. Quantitative analysis of the expression of iNOS and COX-2 mRNA was performed by taking the ratio of the integrated density of each band to that of the 18S RNA band in the same sample.
# [4] = ABTS free radical scavenging assay (TEAC); format: biochemical; details: Trolox equivalent of a 1.0 mM solution
# Method: For the ABTS assay, a solution of ABTS in water was prepared at a final concentration of 7 mM. The ABTS radical cation (ABTS^.+) was produced by adding solid potassium persulfate to the ABTS solution sufficient to yield a final concentration of 2.45 mM potassium persulfate in the mixture and allowing the mixture to stand in the dark at room temperature for 12-16 hours before use. The ABTS^.+ solution was diluted with methanol to an absorbance of 0.70 at 734 nm. Stock solutions of each of the potential actives under investigation were diluted with ethanol to ensure 20-80% inhibition of the radical cation upon introduction of a 10 μL aliquot of the active solution to 1 ml of diluted ABTS^.+ solution. The absorbance was measured beginning exactly 1 min after initial mixing and thereafter up to 6 min. Trolox was used as the standard, and the activity of each of the potential actives was expressed as a Trolox Equivalent Antioxidant Capacity (TEAC) value. The TEAC value represents the millimolar concentration of a Trolox solution having an equivalent antioxidant capacity to a 1.0 mM solution of the potential active under investigation.
# [5] = system: iNOS mRNA expression in LPS-induced RAW 264.7 mouse macrophage cells; test: Inhibition of LPS-induced iNOS mRNA expression (RT-PCR); format: cell-based; details: 12 hrs
# Method: as §1
# [6] = system: COX-2 protein expression in LPS-induced RAW 264.7 cells; test: Inhibition of LPS-induced COX-2 protein expression (Western blotting); format: cell-based, mouse; details: treatment for 18 hrs, LPS 0.5 μg/mL
# From the text: (§2) To confirm whether the inhibition of NO production by kombo butter, kombo butter acid extract, and purified sargaquinoic acid (KB-1), sargachromenol (KB-2), and sargahydroquinoic acid (KB-3) was due to reduced enzymatic activity or protein expression of inducible nitric oxide synthase (iNOS), we investigated the effect of kombo butter and its constituents on iNOS protein expression by Western blotting. In addition to iNOS, we also studied the effect of kombo butter and its constituents on the expression of cyclooxygenase-2 (COX-2), an enzyme critical to the production of inflammatory prostaglandins and known to be activated in LPS-stimulated macrophages.
# (§3) RAW 264.7 mouse macrophage cells were cultured in Dulbecco's Modified Eagle Medium (DMEM) supplemented with 15% fetal bovine serum (FBS) and an antibiotic and antimycotic mixture. Cell suspensions of 50,000 cells/well were cultured in quadruplicate in flat bottom microtiter plates for 12 hrs. […]
# (§4) An equal amount of protein (40 μg) from each sample was resolved by SDS-polyacrylamide gel electrophoresis. […] Specific bands were detected using enhanced chemiluminescence's detection system (Amersham-Pharmacia Biotech, NJ, USA) and the membrane was exposed to X-ray film. […]
# [7] = compared with α-tocopherol and indomethacin; cited from earlier work
# [8] = system: iNOS protein expression in LPS-induced RAW 264.7 cells; test: Inhibition of LPS-induced iNOS protein expression (Western blotting); format: cell-based, mouse; details: treatment for 18 hrs, LPS 0.5 μg/mL
# From the text: as §2, §3, §4
# [9] = in vitro, compared with α-tocopherol; cited from earlier work
compound,measurement,setting,value
"CC(C)=CCC/C(=C/CC/C(C)=C/CCC1(C)C=Cc2cc(O)cc(C)c2O1)C(=O)O (centres unmarked) [Sargachromenol, sargachromenol]",anti-inflammatory activity,[1],exceeded that of α-tocopherol
same,DPPH free radical scavenging IC50,[2],17.3 µg/mL
same,inhibition of COX-2 mRNA expression,[3]; 50 μM,16%
same,TEAC,[4],0.75 mM
same,inhibition of iNOS mRNA expression (in words),[5]; 50 μM,exhibited inhibitory activity
same,inhibition of COX-2 protein expression,[6],markedly inhibited
same,antioxidant activity (DPPH radical scavenging),[7],better than those of either α-tocopherol or indomethacin
"CC(C)=CCC/C(=C/CC/C(C)=C/CC/C(C)=C/Cc1cc(O)cc(C)c1O)C(=O)O [Sargahydroquinoic acid, sargahydroquinoic acid]",inhibition of COX-2 mRNA expression,[3]; 25 μM,~12%
same,inhibition of COX-2 mRNA expression,[3]; 50 μM,~19%
same,inhibition of iNOS mRNA expression,[5]; 25 μM,31%
same,inhibition of iNOS mRNA expression,[5]; 50 μM,74%
"CC(C)=CCC/C(=C\CC/C(C)=C/CC/C(C)=C/CC1=CC(=O)C=C(C)C1=O)C(=O)O [Sargaquinoic acid, sargaquinoic acid]",TEAC,[4],0.15 mM
same,inhibition of iNOS mRNA expression (in words),[5]; 50 μM,exhibited inhibitory activity
same,inhibition of iNOS protein expression,[8],markedly inhibited
"COc1ccc2c(c1)c(CC(=O)O)c(C)n2C(=O)c1ccc(Cl)cc1 [indomethacin, reference compound]",inhibition of COX-2 mRNA expression (in words),[3],neither of these compounds effected any inhibition
CC(=CCCC(C)=CCc1cc(O)cc(C)c1O)CCC=C(C)CCC=C(C)C(=O)O [kombic acid],antioxidant activity with respect to lipid peroxidation,[9],either met or exceeded that of α-tocopherol
vitamin E [reference compound],inhibition of COX-2 mRNA expression (in words),[3],neither of these compounds effected any inhibition
